Earlier results as cited in patent US5041644A, “Peptide derivatives of β-chloro-L(Z)-dehydro-glutamic acid” (Merck & Co., Inc., priority 1987, dated 1991).

How the values were obtained:
[1] = tested on: Micrococcus luteus; conditions: very narrow antibacterial spectrum; activity practically limited only to Micrococcus luteus
[2] = tested on: D-Alanyl-D-Alanine ligase (synthetase); conditions: at both the donor and acceptor sites; most potent ligase inhibitor described heretofore

inhibition of the ligase [2]	Compound	antibacterial activity [1]
	N[C@@H](C(=O)O)/C(Cl)=C/C(=O)O [β-chloro-L-(Z)-dehydroglutamic acid]	shows an antibacterial activity
reversible inhibitor	N[C@@H]1CONC1=O [D-Cycloserine]	
